Test: IV Admixture stability in LR at approximately 2.4 mg/mL after reconstitution
Type: physicochemical
Conditions: for pH drop: from zero to two hours
Method: To analyze DOXO-EMCH's behavior in solution, a reversed-phase (RP) HPLC method for quantitation of DOXO-EMCH and various impurities and degradation products was utilized. Samples (1.0 μL injection volume) were assayed on an HPLC system fitted with a Phenomenex Gemini C18 column 100×2.0 mm, 3 μm at a flow rate of 0.3 mL/min. The mobile phase used was an acetate/acetonitrile gradient. The degradation product EMCH could not be detected using the above HPLC method, and was therefore determined using a liquid chromatography-mass spectrometry (LC-MS) method.
IV Admixture stability studies were designed to use the reconstitution diluent found suitable in part 1 following the procedure outlined below. Briefly, to prepare an IV Admixture solution containing approximately 2.4 mg/mL DOXO-EMCH, the required volume for reconstitution was withdrawn from the IV infusion solution bag intended for final administration. The required volume for reconstitution of the respective diluent was measured and transferred into a vial of lyophilized DOXO-EMCH. The vial of DOXO-EMCH and diluent was gently swirled to dissolve the vial contents and obtain a homogeneous mixture. The reconstituted solution of drug product was inspected to ensure that the drug was completely dissolved and that no foreign matter was present. This procedure was repeated for the total number of vials required to prepare the calculated dose of DOXO-EMCH in IV infusion solution. The required volume of reconstituted DOXO-EMCH solution was then withdrawn from the drug product vials using a suitably sized syringe, and injected into the IV infution solution bag. The contents of the IV infusion solution bag were thoroughly mixed to obtain a homogeneous mixture. The IV infusion bag was then stored at room temperature and protected from light.
The IV Admixture study was performed by first removing 3 vials of 200 mg lyophilized DOXO-EMCH drug product from storage at −20° C. and allowing the vials to come to room temperature. […] Each of the vials was reconstituted as described above. The required volume of the reconstitution diluent (20 mL) was drawn into an appropriate plastic syringe using a needle and injected through the stopper of each vial. The reconstituted vial was then swirled and visually inspected for complete reconstitution to form a clear, homogeneous solution. The time required to form a clear, homogeneous solution was recorded. The required volume (20.0 mL of a 10 mg/mL constituted solution) was transferred from each reconstituted vial into the 250 mL IV Admixture solution as described above. Briefly, the required volume (20.0 mL of a 10 mg/mL constituted solution) was withdrawn using an appropriate plastic syringe and needle, the required volume of constituted drug product was transferred from each of three vials into the 250 mL IV Admixture using an appropriate plastic syringe and needle, and the contents of the IV Admixture were completely mixed to obtain a homogeneous mixture at a target concentration of approximately 2.4 mg/mL. The IV bag was weighed prior to injection of constituted drug product. […] solution, diluting with chilled HPLC method diluent to achieve a target concentration of 0.24 mg/mL, and injecting into the HPLC. Duplicate injections were made for each time point. The pH of the IV Admixture and sample prepared for HPLC analysis were also measured at each time point. The empty IV bag was weighed at study completion to calculate the actual IV Admixture solution volume in each bag.
The reconstituted solution was evaluated for color, clarity, and absence of insoluble material in the vial after every 30 seconds of mixing. Following addition of the reconstituted drug product solution to the IV bag, the resulting IV Admixture was evaluated for color, clarity, and absence of any insoluble material immediately after mixing and at each analytical time point. The amount (area %) of the degradation product doxorubicin was determined at each time point. […]

[1] = reconstituted in 50:50 ethanol:water, diluted in LR, two hour time point, average of two studies
[2] = reconstituted in LR, diluted in LR to ~2.4 mg/mL, Study #1, ambient temperature, 0 min
[3] = reconstituted in LR, diluted in LR to ~2.4 mg/mL, Study #1, ambient temperature, 30 min
[4] = reconstituted in LR, diluted in LR to ~2.4 mg/mL, Study #1, ambient temperature, 60 min
[5] = reconstituted in LR, diluted in LR to ~2.4 mg/mL, Study #1, ambient temperature, 120 min
[6] = reconstituted in LR, diluted in LR to ~2.4 mg/mL, Study #1, ambient temperature, 150 min
[7] = reconstituted in LR, diluted in LR to ~2.4 mg/mL, Study #1, ambient temperature, 240 min
[8] = reconstituted in LR, diluted in LR to ~2.4 mg/mL, Study #2, ambient temperature, 0 min
[9] = reconstituted in LR, diluted in LR to ~2.4 mg/mL, Study #2, ambient temperature, 30 min
[10] = reconstituted in LR, diluted in LR to ~2.4 mg/mL, Study #2, ambient temperature, 60 min
[11] = reconstituted in LR, diluted in LR to ~2.4 mg/mL, Study #2, ambient temperature, 90 min
[12] = reconstituted in LR, diluted in LR to ~2.4 mg/mL, Study #2, ambient temperature, 120 min
[13] = reconstituted in LR, diluted in LR to ~2.4 mg/mL, Study #2, ambient temperature, 150 min
[14] = reconstituted in SWFI (~10 mg/mL), diluted in LR IV bag to ~2.4 mg/mL, ambient temperature, 30 min
[15] = reconstituted in SWFI (~10 mg/mL), diluted in LR IV bag to ~2.4 mg/mL, ambient temperature, 60 min
[16] = reconstituted in SWFI (~10 mg/mL), diluted in LR IV bag to ~2.4 mg/mL, ambient temperature, 150 min
[17] = reconstituted in SWFI (~10 mg/mL), diluted in LR IV bag to ~2.4 mg/mL, ambient temperature, 240 min
[18] = reconstituted in ethanol:water, diluted in LR to ~2.4 mg/mL, Study #1, ambient temperature, 0 min
[19] = reconstituted in ethanol:water, diluted in LR to ~2.4 mg/mL, Study #1, ambient temperature, 30 min
[20] = reconstituted in ethanol:water, diluted in LR to ~2.4 mg/mL, Study #1, ambient temperature, 60 min
[21] = reconstituted in ethanol:water, diluted in LR to ~2.4 mg/mL, Study #1, ambient temperature, 90 min
[22] = reconstituted in ethanol:water, diluted in LR to ~2.4 mg/mL, Study #1, ambient temperature, 120 min
[23] = reconstituted in ethanol:water, diluted in LR to ~2.4 mg/mL, Study #1, ambient temperature, 150 min
[24] = reconstituted in ethanol:water, diluted in LR to ~2.4 mg/mL, Study #2, ambient temperature, 0 min
[25] = reconstituted in ethanol:water, diluted in LR to ~2.4 mg/mL, Study #2, ambient temperature, 30 min
[26] = reconstituted in ethanol:water, diluted in LR to ~2.4 mg/mL, Study #2, ambient temperature, 60 min
[27] = reconstituted in ethanol:water, diluted in LR to ~2.4 mg/mL, Study #2, ambient temperature, 120 min
[28] = reconstituted in ethanol:water, diluted in LR to ~2.4 mg/mL, Study #2, ambient temperature, 150 min
[29] = reconstituted in ethanol:water, diluted in LR to ~2.4 mg/mL, Study #2, ambient temperature, 240 min

COc1cccc2c1C(=O)c1c(O)c3c(c(O)c1C2=O)C[C@@](O)(/C(CO)=N/NC(=O)CCCCCN1C(=O)C=CC1=O)C[C@@H]3O[C@H]1C[C@H](N)[C@H](O)[C@H](C)O1.Cl [DOXO-EMCH]
stability of IV solutions in LR (drug product reconstituted in any of SWFI, LR, 50:50 ethanol/water, based on accumulation of doxorubicin): relatively stable for two hours or more
pH drop (reconstituted in 50:50 ethanol:water, diluted in LR, two studies): 0.3-0.4 units
average doxorubicin content [1]: 2.0%
average pH [1]: 5.9
Doxorubicin [2]: 1.10 Area %
pH [2]: 5.99
Doxorubicin [3]: 1.28 Area %
pH [3]: 5.87
Doxorubicin [4]: 1.74 Area %
pH [4]: 5.85
Doxorubicin [5]: 2.24 Area %
pH [5]: 5.76
Doxorubicin [6]: 2.93 Area %
pH [6]: 5.75
Doxorubicin [7]: 3.80 Area %
pH [7]: 5.67
Doxorubicin [8]: 1.03 Area %
pH [8]: 6.10
Doxorubicin [9]: 1.04 Area %
pH [9]: 5.98
Doxorubicin [10]: 1.68 Area %
pH [10]: 5.94
Doxorubicin [11]: 1.67 Area %
pH [11]: 5.89
Doxorubicin [12]: 2.53 Area %
pH [12]: 5.79
Doxorubicin [13]: 2.50 Area %
pH [13]: 5.77
pH drop (reconstituted in LR, diluted in LR, two studies): 0.2-0.3 units
average pH (reconstituted in LR, diluted in LR, two hour time point, average of two studies): 5.8
Doxorubicin (reconstituted in SWFI (~10 mg/mL), diluted in LR IV bag to ~2.4 mg/mL, ambient temperature, 0 min): 1.23 Area %
Doxorubicin [14]: 1.40 Area %
pH [14]: 5.98
Doxorubicin [15]: 1.88 Area %
pH [15]: 5.84
Doxorubicin [16]: 3.23 Area %
pH [16]: 5.73
Doxorubicin [17]: 4.23 Area %
pH [17]: 5.62
pH drop (reconstituted in SWFI, diluted in LR): about 0.4 units
Doxorubicin [18]: 1.0 Area %
pH [18]: 6.22
Doxorubicin [19]: 1.1 Area %
pH [19]: 6.04
Doxorubicin [20]: 1.3 Area %
pH [20]: 5.95
Doxorubicin [21]: 1.7 Area %
pH [21]: 5.89
Doxorubicin [22]: 1.9 Area %
pH [22]: 5.83
Doxorubicin [23]: 2.3 Area %
pH [23]: 5.82
Doxorubicin [24]: 1.1 Area %
pH [24]: 6.19
Doxorubicin [25]: 1.3 Area %
pH [25]: 6.05
Doxorubicin [26]: 1.5 Area %
pH [26]: 5.99
Doxorubicin [27]: 2.1 Area %
pH [27]: 5.89
Doxorubicin [28]: 2.3 Area %
pH [28]: 5.87
Doxorubicin [29]: 3.4 Area %
pH [29]: 5.80
